Assay [1] concerns the target T1, Estrogen receptor (Homo sapiens) (UniProt P03372).
T1 sequence (whole entry): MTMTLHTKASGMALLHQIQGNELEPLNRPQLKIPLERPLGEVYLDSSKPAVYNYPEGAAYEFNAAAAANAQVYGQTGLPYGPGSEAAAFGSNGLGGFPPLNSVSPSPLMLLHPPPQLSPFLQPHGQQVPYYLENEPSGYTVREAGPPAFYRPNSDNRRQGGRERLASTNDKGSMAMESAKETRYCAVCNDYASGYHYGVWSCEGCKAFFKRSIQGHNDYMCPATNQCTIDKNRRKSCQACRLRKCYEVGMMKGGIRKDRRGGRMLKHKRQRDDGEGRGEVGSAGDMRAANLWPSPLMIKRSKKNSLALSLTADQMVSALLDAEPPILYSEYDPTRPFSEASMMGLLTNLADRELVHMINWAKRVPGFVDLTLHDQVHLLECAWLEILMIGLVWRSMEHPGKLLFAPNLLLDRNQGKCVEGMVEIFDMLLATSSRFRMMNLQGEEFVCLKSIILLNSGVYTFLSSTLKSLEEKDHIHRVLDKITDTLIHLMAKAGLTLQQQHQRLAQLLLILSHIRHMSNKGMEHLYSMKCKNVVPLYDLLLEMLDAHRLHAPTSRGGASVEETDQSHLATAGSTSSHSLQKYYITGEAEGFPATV
Nature of the assay: Displacement of [6,7-3H]17beta-estradiol from recombinant human ERalpha ligand binding domain at 0.4 to 4 uM incubated for 16 hrs by scintillation counting analysis.

The target of assay [2] is T1, Estrogen receptor (Homo sapiens). Nature of the assay: Displacement of [6,7-3H]17beta-estradiol from recombinant human ERalpha ligand binding domain incubated for 16 hrs by scintillation counting analysis.
Assay [3] shares this target. Nature of the assay: Antagonist activity at ERalpha in human MCF7 cells assessed as inhibition of 17beta-estradiol-mediated cell proliferation incubated for 5 days by WST-8 assay. It is filed as cell-based.
The target is the same in assay [4]. Nature of the assay: Agonist activity at ERalpha in human MCF7 cells assessed as induction of cell proliferation incubated for 5 days by WST-8 assay. It is filed as cell-based. (Tetrazolium dyes change colour on reduction, which living cells bring about.)

The values below come from ChEMBL document CHEMBL3751809, “Symmetric 4,4'-(piperidin-4-ylidenemethylene)bisphenol derivatives as novel tunable estrogen receptor (ER) modulators” (Bioorg Med Chem, 2016).

The source made the active and inactive calls. The rule behind the calls is not given here.

Regarding `CN1CCC(=C(c2ccc(O)cc2)c2ccc(O)cc2)CC1`, the inhibition result in assay [1] was “inactive”.
In the case of `CC(=O)N1CCC(=C(c2ccc(O)cc2)c2ccc(O)cc2)CC1`, in assay [1], the inhibition result was “inactive”.
With `CCOC(=O)N1CCC(=C(c2ccc(O)cc2)c2ccc(O)cc2)CC1`, in assay [2], the inhibition entry was “Dose-dependent effect”.
Regarding `CC1(C)CC(=C(c2ccc(O)cc2)c2ccc(O)cc2)CC(C)(C)N1`, the inhibition result in assay [1] was “Active”.
In the case of `CC(=O)N1C(C)(C)CC(=C(c2ccc(O)cc2)c2ccc(O)cc2)CC1(C)C`, in assay [3], the inhibition entry was “inactive”. The inhibition entry in assay [1] is “Active”. Further, the Activity entry in assay [4] was “Dose-dependent effect”.
For `Oc1ccc(C(=C2CCNCC2)c2ccc(O)cc2)cc1`, in assay [1], the inhibition result was “inactive”.
